Test results from US7169789B2 (Kirin Beer Kabushiki Kaisha, priority 1999, dated 2007).
Where two headings read alike, the source gives them in different places.

Columns and labels:
[1] = tested on: A375 human melanoma cells; experiment: Karyomorphosis test; format: cell-based; settings: test compound 10 μM and 1 μM, 48 hr, nuclei stained with propidium iodide
Protocol: A375 human melanoma cells (2×10^4) (obtained from Japanese Foundation for Cancer Research) were incolulated on a culture slide (manufactured by Falcon) and were cultured at 37° C. After the elapse of 5 hr from the initiation of the cultivation, the test compound was added to 10 μM and 1 μM, and the cultivation was continued for additional 48 hr. After the fixation of cells, 50 μg/ml propidium iodide solution containing ribonuclease (200 μg/ml) was added to stain nuclei. The stained nuclei were observed under a fluorescent microscope to analyze the nuclei for abnormality of karyomorphosis.

[2] = tested on: activation of MAPK within vascular endothelial cells induced by VEGF stimulation; experiment: Inhibitory activity against activation of MAPK within vascular endothelial cells induced by VEGF stimulation; format: cell-based; settings: human funicular venous vascular endothelial cells, VEGF 50 ng/ml, phosphorylated MAPK by immunoblotting
How it was run: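 Serum-starved (0.5% FCS, 24 h) human umbilical vein endothelial cells pretreated with compound 1 h at 37 °C, then stimulated with 50 ng/ml recombinant human VEGF for 8 min.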

Human glioma cells GL07 = experiment: Antitumor effect on human glioma cells (GL07) transplanted into nude mice; format: in vivo; settings: 20 mg/kg once a day for 9 days; for inhibition in vivo at 20 mg/kg: Mus musculus, Glioma cell, 216 h, read-out: TGIR, % (tumor growth inhibition rate)
How it was run: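 GL07 xenografts in nude mice, grouped (n=4) at ~100 mm^3 tumor volume. Test compound 20 mg/kg p.o. or i.p. once daily for 9 days; vehicle controls. TGIR = (1−Tx/Cx)×100 from tumor volumes normalized to day-of-start volume = 1.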

Row | Structure (SMILES) | Change in morphosis [1] | IC50 ([2]; Endothelial cell) | IC50 [2] | also measured
1 | CCCNC(=O)Nc1ccc(Oc2ccnc3cc(OC)c(OC)cc23)cc1Cl [Example 13, N-{2-chloro-4-[(6,7-dimethoxy-4-quinolyl)oxy]-phenyl}-N′-propylurea] | (−) (the change in karyomorphosis of cells did not take place at 10 μM) | 2.2 nM | – | inhibition in vivo at 20 mg/kg (Human glioma cells GL07; ip, GL07, intraperitoneal): 52%
2 | COc1cc2nccc(Oc3ccc(NC(=O)Nc4ccc(F)cc4C)c(Cl)c3)c2cc1OC [Example 14, N-{2-Chloro-4-[(6,7-dimethoxy-4-quinolyl)oxy]phenyl}-N′-(4-fluoro-2-methylphenyl)urea] | (−) (the change in karyomorphosis of cells did not take place at 10 μM) | 0.7 nM | – | inhibition in vivo at 20 mg/kg (Human glioma cells GL07; ip, GL07, intraperitoneal): 81%
3 | COc1cc2nccc(Oc3ccc(NC(=O)Nc4ccc(Cl)cn4)c(Cl)c3)c2cc1OC [Example 16, N-{2-Chloro-4-[(6,7-dimethoxy-4-quinolyl)oxy]phenyl}-N′-(5-chloro-2-pyridyl)urea] | (−) (the change in karyomorphosis of cells did not take place at 10 μM) | 2.9 nM | – | inhibition in vivo at 20 mg/kg (Human glioma cells GL07; ip, GL07, intraperitoneal): 77%
4 | COc1cc2nccc(Oc3ccc(NC(=O)Nc4ccc(Br)cn4)c(Cl)c3)c2cc1OC [Example 17, N-(5-Bromo-2-pyridyl)-N′-{2-chloro-4-[(6,7-dimethoxy-4-guinolyl)oxy]phenyl}urea] | (−) (the change in karyomorphosis of cells did not take place at 10 μM) | – | 11 nM | TGIR, % (tumor growth inhibition rate) (Human glioma cells GL07; GL07, intraperitoneal): 85%
5 | COc1ccccc1NC(=O)Nc1ccc(Oc2ccnc3cc(OC)c(OC)cc23)cc1Cl [Example 18, N-{2-Chloro-4-[(6,7-dimethoxy-4-quinolyl)oxy]phenyl}-N′-(2-methoxyphenyl)urea] | (−) (the change in karyomorphosis of cells did not take place at 10 μM) | 0.6 nM | – | inhibition in vivo at 20 mg/kg (Human glioma cells GL07; GL07, oral): 57%
6 | COc1cc2nccc(Oc3ccc(NC(=O)Nc4ccc(F)cc4F)c(C)c3C)c2cc1OC [Example 24, N-(2,4-Difluorophenyl)-N′-{4-[(6,7-dimethoxy-4-guinolyl)oxy]-2,3-dimethylphenyl}urea] | (−) (the change in karyomorphosis of cells did not take place at 10 μM) | – | 0.6 nM | TGIR, % (tumor growth inhibition rate) (Human glioma cells GL07; GL07, oral): 63%
7 | COc1cc2nccc(Oc3ccc(NC(=O)Nc4cccc(C)n4)c(C)c3C)c2cc1OC [Example 35, N-{4-[(6,7-Dimethoxy-4-quinolyl)oxy]-2,3-dimethylphenyl}-N′-(6-methyl-2-pyridyl)urea] | (−) (the change in karyomorphosis of cells did not take place at 10 μM) | 3.7 nM | – | –
8 | COc1ccc(NC(=O)Nc2ccc(Oc3ccnc4cc(OC)c(OC)cc34)c(C)c2C)cc1 [Example 36, N-{4-[(6,7-Dimethoxy-4-guinolyl)oxy]-2,3-dimethylphenyl}-N′-(4-methoxyphenyl)urea] | (−) (the change in karyomorphosis of cells did not take place at 10 μM) | – | 3.3 nM | –
9 | COc1cc2nccc(Oc3cc(C)c(NC(=O)Nc4ccc(F)cc4C)cc3C)c2cc1OC [Example 40, N-{4-[(6,7-Dimethoxy-4-quinolyl)oxy]-2,5-dimethylphenyl}-N′-(4-fluoro-2-methylphenyl)urea] | (−) (the change in karyomorphosis of cells did not take place at 10 μM) | 12 nM | – | –
10 | COc1cc2nccc(Oc3cc(C)c(NC(=O)Nc4cccc(F)c4OC)cc3C)c2cc1OC [Example 41, N-{4-[(6,7-Dimethoxy-4-quinolyl)oxy]-2,5-dimethylphenyl}-N′-(3-fluoro-2-methoxyphenyl)urea] | (−) (the change in karyomorphosis of cells did not take place at 10 μM) | 4.9 nM | – | –
11 | COc1cc2nccc(Oc3cc(C)c(NC(=O)Nc4ccccc4C)cc3C)c2cc1OC [Example 42, N-{4-[(6,7-Dimethoxy-4-guinolyl)oxy]-2,5-dimethylphenyl}-N′-(2-methylphenyl)urea] | (−) (the change in karyomorphosis of cells did not take place at 10 μM) | – | 5.9 nM | –
12 | COc1ccccc1NC(=O)Nc1cc(C)c(Oc2ccnc3cc(OC)c(OC)cc23)cc1C [Example 43, N-{4-[(6,7-Dimethoxy-4-quinolyl)oxy]-2,5-dimethylphenyl}-N′-(2-methoxyphenyl)urea] | (−) (the change in karyomorphosis of cells did not take place at 10 μM) | 3.8 nM | – | –
13 | COc1ccc(NC(=O)Nc2cc(C)c(Oc3ccnc4cc(OC)c(OC)cc34)cc2C)c(OC)n1 [Example 45, N-(2,6-Dimethoxy-3-pyridyl)-N′-{4-[(6,7-dimethoxy-4-quinolyl)oxy]-2,5-dimethylphenyl}urea] | (−) (the change in karyomorphosis of cells did not take place at 10 μM) | 2 nM | – | –
14 | COc1ccc(NC(=O)Nc2cc(C)c(Oc3ccnc4cc(OC)c(OC)cc34)cc2C)cc1 [Example 46, N-{4-[(6,7-Dimethoxy-4-quinolyl)oxy]-2,5-dimethylphenyl}-N′-(4-methoxyphenyl)urea] | (−) (the change in karyomorphosis of cells did not take place at 10 μM) | 4.3 nM | – | –
15 | CCCNC(=O)Nc1ccc(Oc2ccnc3cc(OC)c(OC)cc23)cc1[N+](=O)[O-] [Example 47, N-{4-[(6,7-Dimethoxy-4-guinolyl)oxy]-2-nitrophenyl}-N′-propylurea] | (−) (the change in karyomorphosis of cells did not take place at 10 μM) | – | 4 nM | –
16 | COc1cc2nccc(Oc3c(Cl)cc(NC(=O)Nc4ccc(F)cc4F)cc3Cl)c2cc1OC [Example 49, N-{3,5-Dichloro-4-[(6,7-dimethoxy-4-quinolyl)oxy]phenyl}-N′-(2,4-difluorophenyl)urea] | (−) (the change in karyomorphosis of cells did not take place at 10 μM) | 4.3 nM | – | –
17 | COc1cc2c(Oc3cc(C)c(NC(=O)Nc4ccc(F)cc4F)cc3C)ccnc2cc1OCCN1CCOCC1 [Example 52, N-(2,4-Difluorophenyl)-N′-(4-{[6-methoxy-7-(2-morpholinoethoxy)-4-guinolyl]oxy}-2,5-dimethylphenyl)urea] | (−) (the change in karyomorphosis of cells did not take place at 10 μM) | – | 4.4 nM | –
18 | COc1ccccc1NC(=O)Nc1cc(C)c(Oc2ccnc3cc(OCCN4CCOCC4)c(OC)cc23)cc1C [Example 53, N-(4-{[6-Methoxy-7-(2-morpholinoethoxy)-4-quinolyl]oxy}-2,5-dimethylphenyl)-N′-(2-methoxyphenyl)urea] | (−) (the change in karyomorphosis of cells did not take place at 10 μM) | 5.9 nM | – | –
19 | COCCOc1cc2nccc(Oc3ccc(NC(=O)Nc4ccccc4OC)c(Cl)c3)c2cc1OC [Example 55, N-(2-Chloro-4-{[6-methoxy-7-(2-methoxyethoxy)-4-quinolyl]oxy}phenyl)-N′-(2-methoxyphenyl)urea] | (−) (the change in karyomorphosis of cells did not take place at 10 μM) | 2.8 nM | – | –
20 | COCCOc1cc2nccc(Oc3cc(C)c(NC(=O)Nc4ccc(F)cc4F)cc3C)c2cc1OC [Example 58] | (−) (the change in karyomorphosis of cells did not take place at 10 μM) | – | 5.1 nM | –
21 | COCCOc1cc2nccc(Oc3cc(C)c(NC(=O)Nc4ccccc4OC)cc3C)c2cc1OC [Example 59, N-(4-{[6-Methoxy-7-(2-methoxyethoxy)-4-quinolyl]oxy}-2,5-dimethylphenyl)-N′-(2-methoxyphenyl)-urea] | (−) (the change in karyomorphosis of cells did not take place at 10 μM) | 5.8 nM | – | –
